Where “and” joins values, the source holds several entries; their conditions need not be identical. Identical values can stand only once. Like-named read-outs stand apart in the source and are kept apart here.
How the values were obtained:
LC3A = LC3A (Homo sapiens, UniProt Q9H492); test: FP assay with Cy5-labelled p62 LIR tracer (protein titration and tracer displacement); format: binding; details: for normalized FP signal, p62 LIR tracer displacement: LC3A
LC3B [1] = molecular target: T1, LC3B (Homo sapiens, UniProt Q9GZQ8); test: FP assay with 10O5- and 8F20-based dye-linked tracers 16 and 17; details: LC3B; compound 3 for tracer 17, compound 4 for tracer 16
Text: The only experimental difference in our FP assay setup was the addition of 0.05% Tween-20, which is routinely used[27] to suppress unspecific binding of compounds to proteins.
Fluorescence polarization assay utilizing tracers 16 and 17 for interaction studies with LC3A
(upper panels) and LC3B (lower panels). The left panels depict protein titration measurements
detergent in the buffer to suppress unspecific binding. Middle panels depict displacement
Data were collected in technical
triplicates with error bars expressing the SD (n=3).

LC3B [2] = molecular target: T1, LC3B; details: for CSP: LC3B:ligand molar ratio 1:2; for 3D Mapping code: molar ratio 1:2

Structure (SMILES): O=C1Nc2ccc(I)cc2C1=Cc1cc(Br)c(O)c(Br)c1 [compound 4]
- normalized FP signal, p62 LIR tracer displacement (LC3A; log10 concentration [M] -3.82391): 89.4737
- normalized FP signal, p62 LIR tracer displacement (LC3A; log10 concentration [M] -3.82391, listed as 10O5): 75.5263
- normalized FP signal, p62 LIR tracer displacement (LC3A; log10 concentration [M] -4.1549, listed as 10O5): 82.8947 and 95
- normalized FP signal, p62 LIR tracer displacement (LC3A; log10 concentration [M] -4.60206): 100.526
- normalized FP signal, p62 LIR tracer displacement (LC3A; log10 concentration [M] -4.60206, listed as 10O5): 87.3684
- normalized FP signal, p62 LIR tracer displacement (LC3A; log10 concentration [M] -5): 94.4737
- normalized FP signal, p62 LIR tracer displacement (LC3A; log10 concentration [M] -5, listed as 10O5): 88.6842
- normalized FP signal, p62 LIR tracer displacement (LC3A; log10 concentration [M] -5.30103): 95.7895
- normalized FP signal, p62 LIR tracer displacement (LC3A; log10 concentration [M] -5.69897, listed as 10O5): 88.1579 and 98.6842
- normalized FP signal, p62 LIR tracer displacement (LC3A; log10 concentration [M] -6.22185): 93.1579
- normalized FP signal, p62 LIR tracer displacement (LC3A; log10 concentration [M] -6.22185, listed as 10O5): 102.368
- normalized FP signal, p62 LIR tracer displacement (LC3A; log10 concentration [M] -6.69897, listed as 10O5): 99.4737 and 97.6316
- normalized FP signal, p62 LIR tracer displacement (LC3A; log10 concentration [M] -7.30103, listed as 10O5): 97.6316 and 100
- normalized FP signal, p62 LIR tracer displacement (LC3A; log10 concentration [M] -7.79588, listed as 10O5): 98.6842 and 98.1579
- normalized FP signal, p62 LIR tracer displacement (LC3A; log10 concentration [M] -8.08092, listed as 10O5): 98.9474 and 105.263
- compound titration LC3A (displacement curve, FP signal) (LC3A; log10 concentration [M] -5.30103, two replicate columns per compound): 95.7895
- displacement of dye-linked tracer by parent compound (LC3B [1]): no displacement
- Kd (LC3B [2]): ≥ 200 µM
- CSP induced (LC3B [2]; I34 HN resonance, molar ratio 10O5:LC3B 1): 0.019
- CSP induced (LC3B [2]; I34 HN resonance, molar ratio 10O5:LC3B 2): 0.03102
- CSP induced (LC3B [2]; I34 HN resonance, molar ratio 10O5:LC3B 8): 0.06113
- CSP induced (LC3B [2]; K51 HN resonance, molar ratio 10O5:LC3B 1): 0.02725
- CSP induced (LC3B [2]; K51 HN resonance, molar ratio 10O5:LC3B 2): 0.0413
- CSP induced (LC3B [2]; K51 HN resonance, molar ratio 10O5:LC3B 8): 0.0854
- CSP induced (LC3B [2]; L82 HN resonance, molar ratio 10O5:LC3B 1): 0.01304
- CSP induced (LC3B [2]; L82 HN resonance, molar ratio 10O5:LC3B 2): 0.03131
- CSP induced (LC3B [2]; L82 HN resonance, molar ratio 10O5:LC3B 8): 0.0642
- CSP (LC3B [2]; LC3B residue A75): 0.00342 ppm
- CSP (LC3B [2]; LC3B residue A78): 0.00654 ppm
- CSP (LC3B [2]; LC3B residue A114): 0.006 ppm
- CSP (LC3B [2]; LC3B residue D19): 0.011 ppm
- CSP (LC3B [2]; LC3B residue D48): 0.026 ppm
- 3D Mapping code (LC3B [2]; LC3B residue D48): Light green (intermediate (SD < CSP <2xSD))
- CSP (LC3B [2]; LC3B residue D56): 0.017 ppm
- 3D Mapping code (LC3B [2]; LC3B residue D56): Light green (intermediate (SD < CSP <2xSD))
- CSP (LC3B [2]; LC3B residue D104): 0.00224 ppm
- CSP (LC3B [2]; LC3B residue D106): 0.00462 ppm
- CSP (LC3B [2]; LC3B residue E14): 0.00184 ppm
- CSP (LC3B [2]; LC3B residue E18): 0.00544 ppm
- CSP (LC3B [2]; LC3B residue E25): 0.018 ppm
- 3D Mapping code (LC3B [2]; LC3B residue E25): Light green (intermediate (SD < CSP <2xSD))
- CSP (LC3B [2]; LC3B residue E36): 0.023 ppm
- 3D Mapping code (LC3B [2]; LC3B residue E36): Light green (intermediate (SD < CSP <2xSD))
- CSP (LC3B [2]; LC3B residue E41): 0.002 ppm
- CSP (LC3B [2]; LC3B residue E62): 0.016 ppm
- 3D Mapping code (LC3B [2]; LC3B residue E62): Light green (intermediate (SD < CSP <2xSD))
- CSP (LC3B [2]; LC3B residue E97): 0.013 ppm
- CSP (LC3B [2]; LC3B residue E100): 0.015 ppm
- CSP (LC3B [2]; LC3B residue E102): 0.00152 ppm
- CSP (LC3B [2]; LC3B residue E105): 0.00355 ppm
- CSP (LC3B [2]; LC3B residue E117): 0.010 ppm
- CSP (LC3B [2]; LC3B residue F07): 0.011 ppm
- CSP (LC3B [2]; LC3B residue F13): 0.00221 ppm
- CSP (LC3B [2]; LC3B residue F52): 0.070 ppm
- 3D Mapping code (LC3B [2]; LC3B residue F52): Orange (strong (2xSD <CSP))
- CSP (LC3B [2]; LC3B residue F108): 0.00424 ppm
- CSP (LC3B [2]; LC3B residue F119): 0.003 ppm
- CSP (LC3B [2]; LC3B residue G40, estimated): 0.006 ppm
- 3D Mapping code (LC3B [2]; LC3B residue G85): Light green (intermediate (SD < CSP <2xSD))
- CSP (LC3B [2]; LC3B residue G107): 0.005 ppm
- CSP (LC3B [2]; LC3B residue H27): 0.018 ppm
- 3D Mapping code (LC3B [2]; LC3B residue H27): Light green (intermediate (SD < CSP <2xSD))
- CSP (LC3B [2]; LC3B residue H57): 0.022 ppm
- 3D Mapping code (LC3B [2]; LC3B residue H57): Light green (intermediate (SD < CSP <2xSD))
- 3D Mapping code (LC3B [2]; LC3B residue H86): Light green (intermediate (SD < CSP <2xSD))
- CSP (LC3B [2]; LC3B residue I23): 0.018 ppm
- 3D Mapping code (LC3B [2]; LC3B residue I23): Light green (intermediate (SD < CSP <2xSD))
- CSP (LC3B [2]; LC3B residue I31): 0.020 ppm
- 3D Mapping code (LC3B [2]; LC3B residue I31): Light green (intermediate (SD < CSP <2xSD))
- CSP (LC3B [2]; LC3B residue I34): 0.026 ppm
- 3D Mapping code (LC3B [2]; LC3B residue I34): Light green (intermediate (SD < CSP <2xSD))
- CSP (LC3B [2]; LC3B residue I35): 0.011 ppm
- CSP (LC3B [2]; LC3B residue I64): 0.035 ppm
- 3D Mapping code (LC3B [2]; LC3B residue I64): Orange (strong (2xSD <CSP))
- CSP (LC3B [2]; LC3B residue I66): 0.00535 ppm
- CSP (LC3B [2]; LC3B residue I67): 0.022 ppm
- 3D Mapping code (LC3B [2]; LC3B residue I67): Light green (intermediate (SD < CSP <2xSD))
- 3D Mapping code (LC3B [2]; LC3B residue I95): Light green (intermediate (SD < CSP <2xSD))
- CSP (LC3B [2]; LC3B residue K08): 0.006 ppm
- CSP (LC3B [2]; LC3B residue K30): 0.022 ppm
- 3D Mapping code (LC3B [2]; LC3B residue K30): Light green (intermediate (SD < CSP <2xSD))
- CSP (LC3B [2]; LC3B residue K39): 0.008 ppm
- CSP (LC3B [2]; LC3B residue K42): 0.00565 ppm
- CSP (LC3B [2]; LC3B residue K49): 0.017 ppm
- 3D Mapping code (LC3B [2]; LC3B residue K49): Light green (intermediate (SD < CSP <2xSD))
- CSP (LC3B [2]; LC3B residue K51): 0.037 ppm
- 3D Mapping code (LC3B [2]; LC3B residue K51): Orange (strong (2xSD <CSP))
- CSP (LC3B [2]; LC3B residue K65): 0.004 ppm
- CSP (LC3B [2]; LC3B residue K103): 0.011 ppm
- CSP (LC3B [2]; LC3B residue L22): 0.009 ppm
- CSP (LC3B [2]; LC3B residue L44): 0.00371 ppm
- CSP (LC3B [2]; LC3B residue L47): 0.022 ppm
- 3D Mapping code (LC3B [2]; LC3B residue L47): Light green (intermediate (SD < CSP <2xSD))

— PMC11589570, “Critical assessment of LC3/GABARAP ligands used for degrader development and ligandability of LC3/GABARAP binding pockets” (Nature Communications, 2024)
